Measurements taken from patent US20240300958A1, “COMPOUNDS AND THE USES AND PHARMACEUTICAL COMPOSITIONS THEREOF” (BEIJING YOUZHUJU NETWORK TECHNOLOGY CO. LTD., priority 2023, published 2024).
Where two headings read alike, the source gives them in different places.

Assays:
Assay type in all cases: biochemical
DDR1 [1] = molecular target: T1, DDR1 (Homo sapiens (Human), UniProt Q08345); assay: Kinase inhibition profile (HTRF / ADP Glo kinase assay); conditions: for inhibition at 1 µM: 1 uM Compound C1, DDR1
How it was run: (§1)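 Compound was preincubated with kinase and metal ions for 10 min at 25 °C, then substrate plus ATP was added for a 60 min reaction at 25 °C. Read-out was either HTRF (620/665 nm) or ADP-Glo luminescence. Percent inhibition was scaled between 0.5% DMSO (0%) and 10 μM positive control (100%).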
Target sequence in this assay (Q08345 19-913): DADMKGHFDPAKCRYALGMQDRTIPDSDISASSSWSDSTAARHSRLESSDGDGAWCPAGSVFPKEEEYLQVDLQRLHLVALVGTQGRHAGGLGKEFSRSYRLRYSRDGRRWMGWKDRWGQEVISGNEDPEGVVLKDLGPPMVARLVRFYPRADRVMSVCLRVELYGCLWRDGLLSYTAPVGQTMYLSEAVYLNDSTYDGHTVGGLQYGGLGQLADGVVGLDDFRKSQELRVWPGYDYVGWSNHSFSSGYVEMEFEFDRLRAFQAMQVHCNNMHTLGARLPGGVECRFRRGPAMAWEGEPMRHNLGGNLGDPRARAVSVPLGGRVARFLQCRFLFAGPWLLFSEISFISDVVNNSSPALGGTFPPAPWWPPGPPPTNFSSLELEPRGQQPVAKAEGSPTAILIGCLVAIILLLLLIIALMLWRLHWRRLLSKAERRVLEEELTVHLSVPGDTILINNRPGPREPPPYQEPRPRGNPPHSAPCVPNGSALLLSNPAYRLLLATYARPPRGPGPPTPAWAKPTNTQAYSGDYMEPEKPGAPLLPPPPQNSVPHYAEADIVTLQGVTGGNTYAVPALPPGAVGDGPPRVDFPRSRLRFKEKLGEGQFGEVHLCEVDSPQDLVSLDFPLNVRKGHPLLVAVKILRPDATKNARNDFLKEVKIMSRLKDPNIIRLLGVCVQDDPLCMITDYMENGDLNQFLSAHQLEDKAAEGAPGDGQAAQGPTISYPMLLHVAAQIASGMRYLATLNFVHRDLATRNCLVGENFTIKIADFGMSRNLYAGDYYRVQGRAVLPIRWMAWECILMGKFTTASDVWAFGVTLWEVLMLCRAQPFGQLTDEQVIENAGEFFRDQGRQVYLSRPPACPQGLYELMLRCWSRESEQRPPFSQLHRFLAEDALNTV

HGK = HGK (Homo sapiens (Human), UniProt O95819); assay: as above
How it was run: as §1

EPHB4 = EPHB4 (Homo sapiens (Human), UniProt P54760); assay: as above
How it was run: as §1

JNK1 = JNK1 (Homo sapiens (Human), UniProt P45983); assay: as above
JNK1, sequence (P45983 whole entry, species assumed): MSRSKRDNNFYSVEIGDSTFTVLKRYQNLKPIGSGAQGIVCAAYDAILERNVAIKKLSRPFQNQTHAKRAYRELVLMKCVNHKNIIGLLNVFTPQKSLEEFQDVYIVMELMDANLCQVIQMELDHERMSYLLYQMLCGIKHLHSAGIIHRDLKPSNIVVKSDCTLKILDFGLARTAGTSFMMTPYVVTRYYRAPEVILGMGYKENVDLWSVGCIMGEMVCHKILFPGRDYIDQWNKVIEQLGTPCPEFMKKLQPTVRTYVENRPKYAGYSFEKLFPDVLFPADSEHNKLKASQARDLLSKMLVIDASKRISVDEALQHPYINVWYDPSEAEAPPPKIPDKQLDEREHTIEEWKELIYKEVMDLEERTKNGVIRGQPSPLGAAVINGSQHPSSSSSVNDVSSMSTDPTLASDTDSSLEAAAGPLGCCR
How it was run: as §1

CDK2/CycE1 = CDK2/CycE1 (Homo sapiens (Human), UniProt P24941); assay: as above
How it was run: as §1

CLK1 = CLK1 (Homo sapiens (Human), UniProt P49759); assay: as above
CLK1, sequence (P49759 whole entry): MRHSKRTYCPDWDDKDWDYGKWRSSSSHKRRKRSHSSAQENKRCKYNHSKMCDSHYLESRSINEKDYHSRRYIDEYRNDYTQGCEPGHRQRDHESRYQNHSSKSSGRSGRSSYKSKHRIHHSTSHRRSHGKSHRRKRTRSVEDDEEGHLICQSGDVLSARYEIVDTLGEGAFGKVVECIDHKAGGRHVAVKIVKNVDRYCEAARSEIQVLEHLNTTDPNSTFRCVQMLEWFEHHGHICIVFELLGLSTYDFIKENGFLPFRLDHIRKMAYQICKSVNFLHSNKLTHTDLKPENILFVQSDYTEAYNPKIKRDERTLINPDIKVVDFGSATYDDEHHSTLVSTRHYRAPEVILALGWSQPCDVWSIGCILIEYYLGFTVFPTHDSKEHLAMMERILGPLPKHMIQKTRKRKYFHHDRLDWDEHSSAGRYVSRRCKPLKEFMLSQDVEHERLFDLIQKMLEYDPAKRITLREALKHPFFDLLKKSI
How it was run: as §1

PDGFRα = PDGFRα (Homo sapiens (Human), UniProt P16234); assay: as above
PDGFRα, sequence (P16234 24-1089, species assumed): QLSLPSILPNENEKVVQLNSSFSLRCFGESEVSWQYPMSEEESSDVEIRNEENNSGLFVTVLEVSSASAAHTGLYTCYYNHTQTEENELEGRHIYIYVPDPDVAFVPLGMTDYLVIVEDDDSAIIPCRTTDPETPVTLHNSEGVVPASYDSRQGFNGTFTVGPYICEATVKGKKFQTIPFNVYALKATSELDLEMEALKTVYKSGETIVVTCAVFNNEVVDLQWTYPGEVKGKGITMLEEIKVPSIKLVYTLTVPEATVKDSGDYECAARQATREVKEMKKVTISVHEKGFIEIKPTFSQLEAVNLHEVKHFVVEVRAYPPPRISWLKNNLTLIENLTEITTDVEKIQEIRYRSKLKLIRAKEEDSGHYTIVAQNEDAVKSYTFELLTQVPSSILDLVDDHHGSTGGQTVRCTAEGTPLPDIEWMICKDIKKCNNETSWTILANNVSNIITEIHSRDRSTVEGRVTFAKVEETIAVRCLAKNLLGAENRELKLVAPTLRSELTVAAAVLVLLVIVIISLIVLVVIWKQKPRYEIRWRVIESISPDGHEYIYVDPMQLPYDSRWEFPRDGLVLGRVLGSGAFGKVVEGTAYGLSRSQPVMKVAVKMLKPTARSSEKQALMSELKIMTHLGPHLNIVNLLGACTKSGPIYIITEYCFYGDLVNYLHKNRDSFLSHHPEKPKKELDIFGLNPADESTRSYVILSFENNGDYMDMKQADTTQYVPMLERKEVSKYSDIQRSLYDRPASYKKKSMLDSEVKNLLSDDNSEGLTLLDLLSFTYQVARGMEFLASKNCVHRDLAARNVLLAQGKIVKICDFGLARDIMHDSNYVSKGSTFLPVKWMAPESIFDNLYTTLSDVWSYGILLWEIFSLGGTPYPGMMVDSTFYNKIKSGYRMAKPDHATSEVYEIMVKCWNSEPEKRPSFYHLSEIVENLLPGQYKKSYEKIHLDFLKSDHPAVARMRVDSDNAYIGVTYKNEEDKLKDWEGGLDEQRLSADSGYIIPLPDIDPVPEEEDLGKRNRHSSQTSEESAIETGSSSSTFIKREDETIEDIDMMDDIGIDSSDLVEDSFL
How it was run: as §1

SYK = SYK (Homo sapiens (Human), UniProt P43405); assay: as above
How it was run: as §1

AMPKαl/β1/γ1 = AMPKαl/β1/γ1 (Homo sapiens (Human), UniProt Q13131); assay: as above
How it was run: as §1

SGK = SGK (Homo sapiens (Human), UniProt O00141); assay: as above
SGK, sequence (O00141 whole entry, species assumed): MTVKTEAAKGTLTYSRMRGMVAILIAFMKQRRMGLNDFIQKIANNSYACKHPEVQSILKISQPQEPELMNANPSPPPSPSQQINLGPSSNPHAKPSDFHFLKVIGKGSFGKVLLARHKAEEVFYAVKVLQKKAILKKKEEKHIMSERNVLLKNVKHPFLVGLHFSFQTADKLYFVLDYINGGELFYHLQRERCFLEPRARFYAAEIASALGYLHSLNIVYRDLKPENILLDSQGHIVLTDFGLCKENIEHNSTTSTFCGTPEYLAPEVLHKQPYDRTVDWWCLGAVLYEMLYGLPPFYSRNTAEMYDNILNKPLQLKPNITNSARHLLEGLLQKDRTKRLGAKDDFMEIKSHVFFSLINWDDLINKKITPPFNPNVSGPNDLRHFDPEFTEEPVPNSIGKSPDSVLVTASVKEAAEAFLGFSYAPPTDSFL
How it was run: as §1

TRKB = TRKB (Homo sapiens (Human), UniProt Q16620); assay: as above
TRKB, sequence (Q16620 32-822, species assumed): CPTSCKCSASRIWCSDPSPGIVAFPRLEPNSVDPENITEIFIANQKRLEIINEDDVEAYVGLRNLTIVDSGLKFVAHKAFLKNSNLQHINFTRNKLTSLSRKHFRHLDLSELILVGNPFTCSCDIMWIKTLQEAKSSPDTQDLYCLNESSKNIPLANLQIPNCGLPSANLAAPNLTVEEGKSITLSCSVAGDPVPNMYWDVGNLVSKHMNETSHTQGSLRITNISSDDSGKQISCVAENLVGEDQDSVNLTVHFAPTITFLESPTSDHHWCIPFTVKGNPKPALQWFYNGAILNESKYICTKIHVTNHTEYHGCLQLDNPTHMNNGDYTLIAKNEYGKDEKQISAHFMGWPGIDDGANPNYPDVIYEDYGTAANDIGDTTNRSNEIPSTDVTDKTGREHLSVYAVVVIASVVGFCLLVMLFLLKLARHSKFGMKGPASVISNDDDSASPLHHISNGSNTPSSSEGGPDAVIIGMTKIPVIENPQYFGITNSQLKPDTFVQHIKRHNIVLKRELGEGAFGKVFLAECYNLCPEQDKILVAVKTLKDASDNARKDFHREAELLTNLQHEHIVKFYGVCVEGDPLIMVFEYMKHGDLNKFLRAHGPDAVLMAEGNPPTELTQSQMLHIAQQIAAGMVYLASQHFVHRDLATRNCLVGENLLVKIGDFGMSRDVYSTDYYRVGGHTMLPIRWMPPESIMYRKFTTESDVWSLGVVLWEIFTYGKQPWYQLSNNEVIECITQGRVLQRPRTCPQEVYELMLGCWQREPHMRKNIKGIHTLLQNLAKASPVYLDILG
How it was run: as §1

CHK2 = CHK2 (Homo sapiens (Human), UniProt O96017); assay: as above
CHK2, sequence (O96017 whole entry, species assumed): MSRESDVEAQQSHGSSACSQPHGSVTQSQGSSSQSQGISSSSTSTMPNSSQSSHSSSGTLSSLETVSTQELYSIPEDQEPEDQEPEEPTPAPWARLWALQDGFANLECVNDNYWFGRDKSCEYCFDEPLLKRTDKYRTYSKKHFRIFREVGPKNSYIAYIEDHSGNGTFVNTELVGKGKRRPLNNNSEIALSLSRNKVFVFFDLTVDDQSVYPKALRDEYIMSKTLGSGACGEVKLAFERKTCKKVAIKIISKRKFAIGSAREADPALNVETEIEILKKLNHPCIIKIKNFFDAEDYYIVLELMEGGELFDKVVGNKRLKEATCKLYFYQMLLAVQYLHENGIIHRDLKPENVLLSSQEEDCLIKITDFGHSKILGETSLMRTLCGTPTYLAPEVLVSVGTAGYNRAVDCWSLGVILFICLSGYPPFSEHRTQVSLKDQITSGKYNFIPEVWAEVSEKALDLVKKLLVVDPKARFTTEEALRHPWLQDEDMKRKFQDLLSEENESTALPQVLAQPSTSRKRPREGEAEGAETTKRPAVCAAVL
How it was run: as §1

DDR1 [2] = molecular target: T1, DDR1; assay: DDR1 kinase inhibition assay (FAM-labeled peptide), IC50
Experimental: 1× kinase base buffer (50 mM HEPES, pH 7.5, 0.0015% Brij-35) and a stop buffer (100 mM HEPES, pH 7.5, 0.015% Brij-35, 0.2% Coating Reagent #3, 50 mM EDTA) were prepared for testing kinases.
The compounds were diluted with 100% DMSO to 100 times the highest final inhibitor concentration required in the reaction. 100 μl of dilution of the compound was transferred to wells of a 96-well plate. For example, 100000 nM solution of the compound in DMSO was prepared in this step in case that an inhibitor concentration of 1000 nM is required. 100 μl of 100% DMSO was added to two empty wells of a 96-well plate for no compound control and no enzyme control. This plate was labeled as the source plate. A new 96-well plate with 5 μl of compound transferred from the source plate is used as an intermediate plate. 95 μl of 1× kinase buffer was added to each well of the intermediate plate. The compounds in the intermediate plate was mixed on a shaker for 10 minutes.
5 μl of sample in each well from the 96-well intermediate plate was transferred to the 384-well plate in duplicate. For example, well A1 of the 96-well plate was transferred to wells A2 and A1 of the 384-well plate, and well A2 of the 96-well plate was transferred to wells A3 and A4 of the 384-well plate, and so forth. 2.5× enzyme solution was prepared: 1× kinase basal buffer with added kinase. 2.5× peptide solution was prepared: 1× kinase basal buffer with added FAM-labeled peptide and ATP. To an assay plate already contained 5 μl of 10% dimethyl sulfoxide compound, 2.5× enzyme solution was transferred, and each well of the 384-well assay plate was added 10 μl of 2.5× enzyme solution. After incubation at room temperature for 10 minutes, 2.5× peptide solution was transferred to the assay plate. Each well of the 384-well assay plate was added 10 μl of 2.5× peptide solution. Kinase reaction and termination: incubation at 28° C. for a specified period followed by the addition of 25 μl stop buffer to stop the reaction. The data was read and collected.

[3] = 1 uM Compound C1, read-out: % Inhibition (First measurement)
[4] = 1 uM Compound C1, read-out: % Inhibition (Second measurement)
[5] = 1 uM Compound C1, read-out: Average inhibition (%)

- inhibition at 1 µM (DDR1 [1]; read-out: % Inhibition (First measurement)): 99.4%
- inhibition at 1 µM (DDR1 [1]; read-out: % Inhibition (Second measurement)): 99.1%
- inhibition at 1 µM (DDR1 [1]; read-out: Average inhibition (%)): 99.3%
- Selectivity of DDR1 inhibition in the kinase inhibition profile (in words) (DDR1 [1]; kinase panel): can inhibit DDR1 with higher selectivity
- inhibition at 1 µM (HGK; [3]): 18.5%
- inhibition at 1 µM (HGK; [4]): 17%
- inhibition at 1 µM (HGK; [5]): 17.7%
- inhibition at 1 µM (EPHB4; [3]): 3.8%
- inhibition at 1 µM (EPHB4; [4]): -8.27%
- inhibition at 1 µM (EPHB4; [5]): -2.24%
- inhibition at 1 µM (JNK1; [3]): 4.56%
- inhibition at 1 µM (JNK1; [4]): 5.69%
- inhibition at 1 µM (JNK1; [5]): 5.13%
- inhibition at 1 µM (CDK2/CycE1; [3]): 0.53%
- inhibition at 1 µM (CDK2/CycE1; [4]): 12.6%
- inhibition at 1 µM (CDK2/CycE1; [5]): 6.56%
- inhibition at 1 µM (CLK1; [3]): 2.98%
- inhibition at 1 µM (CLK1; [4]): 12.3%
- inhibition at 1 µM (CLK1; [5]): 7.67%
- inhibition at 1 µM (PDGFRα; [3]): 84.1%
- inhibition at 1 µM (PDGFRα; [4]): 84.8%
- inhibition at 1 µM (PDGFRα; [5]): 84.4%
- inhibition at 1 µM (SYK; [3]): 5.21%
- inhibition at 1 µM (SYK; [4]): -2.04%
- inhibition at 1 µM (SYK; [5]): 1.59%
- inhibition at 1 µM (AMPKαl/β1/γ1; [3]): 2.13%
- inhibition at 1 µM (AMPKαl/β1/γ1; [4]): -1.96%
- inhibition at 1 µM (AMPKαl/β1/γ1; [5]): 0.09%
- inhibition at 1 µM (SGK; [3]): -8.79%
- inhibition at 1 µM (SGK; [4]): -6.61%
- inhibition at 1 µM (SGK; [5]): -7.7%
- inhibition at 1 µM (TRKB; [3]): 20.8%
- inhibition at 1 µM (TRKB; [4]): 40.4%
- inhibition at 1 µM (TRKB; [5]): 30.6%
- inhibition at 1 µM (CHK2; [3]): 0.35%
- inhibition at 1 µM (CHK2; [4]): 7.34%
- inhibition at 1 µM (CHK2; [5]): 3.85%
- IC50 (DDR1 [2]): 0.023 µM
Compound: Cc1ccc(C(=O)Nc2ccccn2)cc1C#Cc1cnc2cc(C3=CCCCC3)cnn12 [Compound C1, 3-{2-[7-(cyclohex-1-en-1-yl)imidazo[1,2-b]pyridazin-3-yl]ethynyl}-4-methyl-N-(pyridin-2-yl)benzamide]
